According to ChEMBL document CHEMBL1137123, “Himbacine analogs as muscarinic receptor antagonists--effects of tether and heterocyclic variations” (Bioorg Med Chem Lett, 2004):
pKi: −log10 of the molar value.

Experiments:
[1] = molecular target: T1, Muscarinic acetylcholine receptor M1 (Homo sapiens, UniProt P11229); test: In vitro inhibitory activity against cloned human M1 muscarinic receptor
T1 sequence (P11229 whole entry): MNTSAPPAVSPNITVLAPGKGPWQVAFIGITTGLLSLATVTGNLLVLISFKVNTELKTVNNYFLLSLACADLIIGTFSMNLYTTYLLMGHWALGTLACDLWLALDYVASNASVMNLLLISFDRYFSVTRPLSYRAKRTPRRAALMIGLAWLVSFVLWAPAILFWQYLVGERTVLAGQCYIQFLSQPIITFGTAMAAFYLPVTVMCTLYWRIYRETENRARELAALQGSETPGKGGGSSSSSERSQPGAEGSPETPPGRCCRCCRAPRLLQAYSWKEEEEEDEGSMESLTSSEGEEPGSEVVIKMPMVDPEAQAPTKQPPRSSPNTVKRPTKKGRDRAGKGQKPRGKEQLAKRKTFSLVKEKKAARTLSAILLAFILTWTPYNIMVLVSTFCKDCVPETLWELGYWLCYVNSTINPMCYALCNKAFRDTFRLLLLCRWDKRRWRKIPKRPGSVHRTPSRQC

[2] = molecular target: T2, Muscarinic acetylcholine receptor M2 (Homo sapiens, UniProt P08172); test: In vitro inhibitory activity against cloned human M2 muscarinic receptor
T2 sequence (P08172 whole entry): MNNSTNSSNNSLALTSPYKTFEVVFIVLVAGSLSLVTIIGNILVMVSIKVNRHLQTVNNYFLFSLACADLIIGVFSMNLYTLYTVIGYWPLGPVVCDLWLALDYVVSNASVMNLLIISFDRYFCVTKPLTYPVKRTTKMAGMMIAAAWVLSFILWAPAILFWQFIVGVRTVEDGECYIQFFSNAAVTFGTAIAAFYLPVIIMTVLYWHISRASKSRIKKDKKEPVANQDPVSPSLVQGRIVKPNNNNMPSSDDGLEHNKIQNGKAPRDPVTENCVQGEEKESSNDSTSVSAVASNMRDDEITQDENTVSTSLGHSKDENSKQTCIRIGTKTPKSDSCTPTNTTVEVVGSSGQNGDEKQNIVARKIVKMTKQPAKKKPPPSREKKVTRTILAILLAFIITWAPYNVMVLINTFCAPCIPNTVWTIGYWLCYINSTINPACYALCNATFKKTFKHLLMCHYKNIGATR

`C[C@@H]1OC(=O)[C@H]2C=C3CCCC[C@@H]3/C(=C/CC3CCC(C)(C)N3C)[C@@H]12` (some centres not stated) showed a pKi [1] of 6.75 and a pKi [2] of 7.17.
`C[C@@H]1OC(=O)[C@H]2C[C@H]3CCCC[C@@H]3/C(=C/C[C@H]3CCC[C@H](C)N3C)[C@@H]12` showed a pKi [1] of 7.18 and a pKi [2] of 7.88.
`C[C@@H]1OC(=O)[C@H]2C=C3CCCC[C@@H]3[C@@H]([C@@H]3CC4CCC(C)(C)N4O3)[C@@H]12` (some centres not stated) gave a pKi [1] of under 5.85 and a pKi [2] of under 5.85.
Work on `CCN1C(CCC2[C@H]3[C@H](C)OC(=O)[C@H]3C[C@H]3CCCC[C@H]23)CCC1(C)C` (some centres not stated) yielded a pKi [1] of 6.09 and a pKi [2] of 6.35.
With `C[C@@H]1OC(=O)[C@H]2C[C@H]3CCCC[C@@H]3C(CCC3CCC(C)(C)N3C)[C@@H]12` (some centres not stated) the pKi [1] was 6.91 and the pKi [2] was 7.91.
Work on `C[C@@H]1OC(=O)[C@H]2C[C@H]3CCCC[C@@H]3/C(=C/CC3CCC(C)(C)N3C)[C@@H]12` (some centres not stated) yielded a pKi [1] of 6.38 and a pKi [2] of 7.37.
`C[C@@H]1OC(=O)[C@H]2C[C@H]3CCCC[C@@H]3[C@@H](CC[C@H]3CCC[C@H](C)N3C)[C@@H]12` showed a pKi [1] of 7.49 and a pKi [2] of 8.37.
For `C[C@@H]1OC(=O)[C@H]2C[C@H]3CCCC[C@@H]3[C@@H]([C@@H](O)C[C@H]3CCC(C)(C)N3C)[C@@H]12`, the pKi [1] was under 5.85 and the pKi [2] was under 5.85.
Compound `CCN1C(C/C=C2\[C@H]3[C@H](C)OC(=O)[C@H]3C=C3CCCC[C@@H]32)CCC1(C)C` (some centres not stated) has a pKi [1] of 6.19 and a pKi [2] of under 5.85.
Work on `C[C@@H]1OC(=O)[C@H]2C[C@H]3CCCC[C@@H]3[C@@H](/C=C/[C@@H]3CCC[C@H](C)N3)[C@@H]12` yielded a pKi [1] of under 5.85 and a pKi [2] of under 5.85.
Compound `C[C@@H]1OC(=O)[C@H]2C[C@H]3CCCC[C@@H]3[C@@H](/C(O)=C/[C@H]3CCC[C@H](C)N3C)[C@@H]12` has a pKi [1] of 5.80 and a pKi [2] of 6.69.
Work on `C[C@@H]1OC(=O)[C@H]2C=C3CCCC[C@@H]3/C(=C/CC3CCC(C)(C)[N+]3(C)C)[C@@H]12` (some centres not stated) yielded a pKi [1] of 6.35 and a pKi [2] of 6.24.
`C[C@@H]1OC(=O)[C@H]2C=C3CCCC[C@@H]3[C@@H]([C@@H]3CC4CCC(C)(C)[N+]4(C)O3)[C@@H]12` (some centres not stated) was tested, and the pKi [1] was 6.10 and the pKi [2] was 6.74.
With `C[C@@H]1OC(=O)[C@H]2C[C@H]3CCCC[C@@H]3[C@@H](CC[C@H]3CCC[C@H](C)N3)[C@@H]12` the pKi [1] was 7.17 and the pKi [2] was 7.80.
In the case of `C[C@@H]1OC(=O)[C@H]2C[C@H]3CCCC[C@@H]3[C@@H](/C=C/[C@@H]3CCC[C@H](C)N3C)[C@@H]12`, the pKi [1] was under 5.85 and the pKi [2] was under 5.85.
`C[C@@H]1OC(=O)[C@H]2C[C@H]3CCCC[C@@H]3[C@@H](/C=C/[C@H]3CCC[C@H](C)N3C)[C@@H]12` [HIMBACINE] was tested, and the pKi [1] was 7.32 and the pKi [2] was 8.35.
